Source: patent US9113629B2, “4-amino-6-(4-substituted-phenyl)-picolinates and 6-amino-2-(4-substituted-phenyl)-pyrimidine-4-carboxylates and their use as herbicides” (DOW AGROSCIENCES LLC, priority 2013, dated 2015)
Read-outs that look alike come from different tables or passages of the source.

Columns and labels:
[1] = system: Key Grass and Sedge Weeds as well as Grass Crops; experiment: Post-emergent Test II herbicidal activity (Table 6); format: in vivo; conditions: post-emergence, 336 h; for pest or weed control at 70 g/ha: application rate 70 g ai/ha; for pest or weed control at 140 g/ha: application rate 140 g ai/ha
How it was run: (§1)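 Greenhouse-grown plants at first or second true leaf stage were sprayed post-emergence with compound in acetone/DMSO-based aqueous spray containing crop oil concentrate and surfactant, at 187 L/ha, highest rate plus ½× to 1/16× dilutions. After 14 d, injury was scored visually versus untreated plants, 0 (none) to 100% (complete kill).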

[2] = system: Key Broadleaf Weed and Crop Species; experiment: Post-emergent Test II herbicidal activity (Table 5); format: in vivo; conditions: post-emergence, 336 h, post-emergent, 14 days after application; for pest or weed control at 70 g/ha: application rate 70 g ai/ha; for pest or weed control at 140 g/ha: application rate 140 g ai/ha
How it was run: as §1

[3] = CYPES: yellow nutsedge (Cyperus esculentus), read-out: Visual Growth Reduction (%) 14 Days After Application, CYPES
[4] = DIGSA: crabgrass (Digitaria sanguinalis), read-out: Visual Growth Reduction (%) 14 Days After Application, DIGSA
[5] = ECHCG: barnyardgrass (Echinochloa crus-galli), read-out: Visual Growth Reduction (%) 14 Days After Application, ECHCG
[6] = ORYSA: rice (Oryza sativa), read-out: Visual Growth Reduction (%) 14 Days After Application, ORYSA
[7] = SETFA: giant foxtail (Setaria faberi), read-out: Visual Growth Reduction (%) 14 Days After Application, SETFA
[8] = SORVU: grain sorghum (Sorghum vulgare), read-out: Visual Growth Reduction (%) 14 Days After Application, SORVU
[9] = TRZSS (wheat, Triticum aestivum), read-out: Visual Growth Reduction (%) 14 Days After Application, TRZSS
[10] = ZEAMX: maize, corn (Zea mays), read-out: Visual Growth Reduction (%) 14 Days After Application, ZEAMX
[11] = ABUTH: velvetleaf (Abutilon theophrasti), read-out: Visual Growth Reduction (%) 14 Days After Application, ABUTH
[12] = AMARE: redroot pigweed (Amaranthus retroflexus), read-out: Visual Growth Reduction (%) 14 Days After Application, AMARE
[13] = BRSNN: oilseed-rape, canola (Brassica napus), read-out: Visual Growth Reduction (%) 14 Days After Application, BRSNN
[14] = CHEAL: lambsquarters (Chenopodium album), read-out: Visual Growth Reduction (%) 14 Days After Application, CHEAL
[15] = EPHHL: wild poinsettia (Euphorbia heterophylla), read-out: Visual Growth Reduction (%) 14 Days After Application, EPHHL
[16] = HELAN: sunflower (Helianthus annuus), read-out: Visual Growth Reduction (%) 14 Days After Application, HELAN
[17] = VIOTR: wild pansy (Viola tricolor), read-out: Visual Growth Reduction (%) 14 Days After Application, VIOTR

Structure (SMILES): Nc1cc(-c2cc(F)c(OC(F)F)cc2F)nc(C(=O)O)c1Cl [Compound 187]
- melting point: 167.4 to 170.2 °C
- pest or weed control at 70 g/ha [1, 3]: 0 to 29%
- pest or weed control at 140 g/ha [1, 3]: 30 to 44%
- pest or weed control at 70 g/ha [1, 4]: 0 to 29%
- pest or weed control at 140 g/ha [1, 4]: 0 to 29%
- pest or weed control at 70 g/ha [1, 5]: 60 to 74%
- pest or weed control at 140 g/ha [1, 5]: 60 to 74%
- pest or weed control at 70 g/ha [1, 6]: 0 to 29%
- pest or weed control at 140 g/ha [1, 6]: 0 to 29%
- pest or weed control at 70 g/ha [1, 7]: 60 to 74%
- pest or weed control at 140 g/ha [1, 7]: 75 to 84%
- pest or weed control at 70 g/ha [1, 8]: 0 to 29%
- pest or weed control at 140 g/ha [1, 8]: 0 to 29%
- pest or weed control at 70 g/ha [1, 9]: 0 to 29%
- pest or weed control at 140 g/ha [1, 9]: 45 to 59%
- pest or weed control at 70 g/ha [1, 10]: 0 to 29%
- pest or weed control at 140 g/ha [1, 10]: 0 to 29%
- pest or weed control at 70 g/ha [2, 11]: 45 to 59%
- pest or weed control at 140 g/ha [2, 11]: 60 to 74%
- pest or weed control at 70 g/ha [2, 12]: 95 to 100%
- pest or weed control at 140 g/ha [2, 12]: 95 to 100%
- pest or weed control at 70 g/ha [2, 13]: 75 to 84%
- pest or weed control at 140 g/ha [2, 13]: 75 to 84%
- pest or weed control at 70 g/ha [2, 14]: 75 to 84%
- pest or weed control at 140 g/ha [2, 14]: 95 to 100%
- pest or weed control at 70 g/ha [2, 15]: 95 to 100%
- pest or weed control at 140 g/ha [2, 15]: 95 to 100%
- pest or weed control at 70 g/ha [2, 16]: 45 to 59%
- pest or weed control at 140 g/ha [2, 16]: 60 to 74%
- pest or weed control at 70 g/ha [2, 17]: 0 to 29%
- pest or weed control at 140 g/ha [2, 17]: 0 to 29%

Structure (SMILES): Cc1cc(F)c(-c2cc(N)c(Cl)c(C(=O)O)n2)cc1F [Compound 188]
- melting point: 172.9 to 175 °C
- pest or weed control at 70 g/ha [1, 3]: 0 to 29%
- pest or weed control at 140 g/ha [1, 3]: 0 to 29%
- pest or weed control at 70 g/ha [1, 4]: 0 to 29%
- pest or weed control at 140 g/ha [1, 4]: 0 to 29%
- pest or weed control at 70 g/ha [1, 5]: 75 to 84%
- pest or weed control at 140 g/ha [1, 5]: 60 to 74%
- pest or weed control at 70 g/ha [1, 6]: 0 to 29%
- pest or weed control at 140 g/ha [1, 6]: 0 to 29%
- pest or weed control at 70 g/ha [1, 7]: 0 to 29%
- pest or weed control at 140 g/ha [1, 7]: 30 to 44%
- pest or weed control at 70 g/ha [1, 8]: 45 to 59%
- pest or weed control at 140 g/ha [1, 8]: 0 to 29%
- pest or weed control at 70 g/ha [1, 9]: 0 to 29%
- pest or weed control at 140 g/ha [1, 9]: 0 to 29%
- pest or weed control at 70 g/ha [1, 10]: 0 to 29%
- pest or weed control at 140 g/ha [1, 10]: 0 to 29%
- pest or weed control at 70 g/ha [2, 11]: 75 to 84%
- pest or weed control at 140 g/ha [2, 11]: 95 to 100%
- pest or weed control at 70 g/ha [2, 12]: 95 to 100%
- pest or weed control at 140 g/ha [2, 12]: 95 to 100%
- pest or weed control at 70 g/ha [2, 13]: 60 to 74%
- pest or weed control at 140 g/ha [2, 13]: 60 to 74%
- pest or weed control at 70 g/ha [2, 14]: 95 to 100%
- pest or weed control at 140 g/ha [2, 14]: 85 to 94%
- pest or weed control at 70 g/ha [2, 15]: 95 to 100%
- pest or weed control at 140 g/ha [2, 15]: 95 to 100%
- pest or weed control at 70 g/ha [2, 16]: 75 to 84%
- pest or weed control at 140 g/ha [2, 16]: 75 to 84%
- pest or weed control at 70 g/ha [2, 17]: 0 to 29%
- pest or weed control at 140 g/ha [2, 17]: 0 to 29%

Structure (SMILES): Cc1cc(F)c(-c2nc(C(=O)O)c(Cl)c(N)c2F)cc1F [Compound 194]
- melting point: 167.4 to 170.2 °C
- pest or weed control at 70 g/ha [1, 3]: 0 to 29%
- pest or weed control at 140 g/ha [1, 3]: 0 to 29%
- pest or weed control at 70 g/ha [1, 4]: 0 to 29%
- pest or weed control at 140 g/ha [1, 4]: 0 to 29%
- pest or weed control at 70 g/ha [1, 5]: 0 to 29%
- pest or weed control at 140 g/ha [1, 5]: 0 to 29%
- pest or weed control at 70 g/ha [1, 6]: 0 to 29%
- pest or weed control at 140 g/ha [1, 6]: 0 to 29%
- pest or weed control at 70 g/ha [1, 7]: 45 to 59%
- pest or weed control at 140 g/ha [1, 7]: 60 to 74%
- pest or weed control at 70 g/ha [1, 8]: 0 to 29%
- pest or weed control at 140 g/ha [1, 8]: 0 to 29%
- pest or weed control at 70 g/ha [1, 9]: 0 to 29%
- pest or weed control at 140 g/ha [1, 9]: 0 to 29%
- pest or weed control at 70 g/ha [1, 10]: 0 to 29%
- pest or weed control at 140 g/ha [1, 10]: 0 to 29%
- pest or weed control at 70 g/ha [2, 11]: 60 to 74%
- pest or weed control at 140 g/ha [2, 11]: 75 to 84%
- pest or weed control at 70 g/ha [2, 12]: 95 to 100%
- pest or weed control at 140 g/ha [2, 12]: 95 to 100%
- pest or weed control at 70 g/ha [2, 13]: 60 to 74%
- pest or weed control at 140 g/ha [2, 13]: 75 to 84%
- pest or weed control at 70 g/ha [2, 14]: 75 to 84%
- pest or weed control at 140 g/ha [2, 14]: 85 to 94%
- pest or weed control at 70 g/ha [2, 15]: 85 to 94%
- pest or weed control at 140 g/ha [2, 15]: 85 to 94%
- pest or weed control at 70 g/ha [2, 16]: 85 to 94%
- pest or weed control at 140 g/ha [2, 16]: 95 to 100%
- pest or weed control at 70 g/ha [2, 17]: 0 to 29%
- pest or weed control at 140 g/ha [2, 17]: 0 to 29%
